Assays:
Assay in all cases: selective drug sensitivity score (sDSS, relative to normal bone marrow) (sDSS (score)); higher = more potent and effective on the cell line relative to normal bone marrow cells
Details in all cases: 72 h
[1] = system: CCRF-HSB2
[2] = system: ALL-PO
[3] = system: HPB-ALL
[4] = system: KASUMI-10
[5] = system: P12-ICHIKAWA
[6] = system: KASUMI-9
[7] = system: RCH-ACV
[8] = system: 380
[9] = system: DND-41
[10] = system: MOLT-4
[11] = system: TMD5
[12] = system: CCRF-CEM
[13] = system: PF-382
[14] = system: COG-LL-394h
[15] = system: KARPAS-45
[16] = system: COG-LL-332h
[17] = system: MN-60
[18] = system: KOPN-8
[19] = system: TANOUE
[20] = system: MHH-CALL-4
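Further: ALL cell lines in 384-well plates, five doses spanning 10,000-fold, each plate scaled between vehicle and 100 µmol/L benzalkonium chloride controls, sDSS an adapted area-under-curve metric.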

Compound	selective drug sensitivity score [1]	selective drug sensitivity score [2]	selective drug sensitivity score [3]	selective drug sensitivity score [4]	selective drug sensitivity score [5]	selective drug sensitivity score [6]	selective drug sensitivity score [7]	selective drug sensitivity score [8]	selective drug sensitivity score [9]	selective drug sensitivity score [10]	selective drug sensitivity score [11]	selective drug sensitivity score [12]	selective drug sensitivity score [13]	selective drug sensitivity score [14]	selective drug sensitivity score [15]	selective drug sensitivity score [16]	selective drug sensitivity score [17]	selective drug sensitivity score [18]	selective drug sensitivity score [19]	selective drug sensitivity score [20]
COc1cc2ncnc(Nc3ccc(F)c(Cl)c3)c2cc1OCCCN1CCOCC1 [Gefitinib] (top concentration 10000 nM)	6.16	4.16	-1.14	1.36	0.96	0.16	1.66	-3.04	1.16	-0.34	-2.14	0.56	0.26	0.16	3.36	2.56	0.66	2.96	-1.84	-3.04
CN1CC[C@@H](NC(=O)Nc2ccc(C#N)cc2)C[C@@H]1c1nc2ccccc2[nH]1 [Glasdegib] (top concentration 1000 nM)	0	0	0.1	0	0	0	0	0	2.9	0	0.3	0	0	0	0	1	4.7	0	2.9	0
CN1CCN(C2CCN(C(=O)Nc3cc(Oc4ccc(NC(=O)C5(C(=O)Nc6ccc(F)cc6)CC5)c(F)c4)ccn3)CC2)CC1 [Golvatinib] (top concentration 2500 nM)	2.96	3.16	6.76	3.26	-0.14	0.66	4.26	-0.14	-0.04	-0.14	0.76	-0.14	-0.14	2.26	0.76	0.86	-0.14	-0.14	-0.14	-0.14
CC(C)C[C@H](NC(=O)[C@@H](COC(C)(C)C)NC(=O)[C@H](Cc1ccc(O)cc1)NC(=O)[C@H](CO)NC(=O)[C@H](Cc1c[nH]c2ccccc12)NC(=O)[C@H](Cc1cnc[nH]1)NC(=O)[C@@H]1CCC(=O)N1)C(=O)N[C@@H](CCCNC(=N)N)C(=O)N1CCC[C@H]1C(=O)NNC(N)=O [Goserelin] (top concentration 10000 nM)	0.04	-0.06	-0.06	-0.06	-0.06	-0.06	-0.06	-0.06	-0.06	-0.06	-0.06	-0.06	-0.06	-0.06	-0.06	-0.06	-0.06	-0.06	-0.06	0.14
O=S(=O)(c1cccc2c(O)nccc12)N1CCCNCC1 [Hydroxyfasudil] (top concentration 19000 nM)	0.98	-0.92	-0.92	-0.82	-0.92	-0.12	-0.72	3.98	-0.92	-0.72	5.68	-0.32	-0.92	-0.92	0.48	-0.82	-0.92	0.78	-0.92	-0.12
COc1cc(C(=O)O)ccc1NC(=O)[C@@H]1N[C@@H](CC(C)(C)C)[C@](C#N)(c2ccc(Cl)cc2F)[C@H]1c1cccc(Cl)c1F [Idasanutlin] (top concentration 10000 nM)	15.5	-12.5	-8.54	18.4	-11.5	23	21	23.5	-11	20.7	12.6	-9.94	-12.2	4.96	-8.34	14.5	0.46	25.7	-12.5	12.3
CCN1CCN(c2ccc(Nc3cc(N(C)C(=O)Nc4c(Cl)c(OC)cc(OC)c4Cl)ncn3)cc2)CC1 [Infigratinib] (top concentration 1000 nM)	0	0	0	0	0	0	0	0	0	0	0	0	0	0	0	0	0	0	0	0
O=C(Nc1cnn2ccc(N3CCC[C@@H]3c3cc(F)ccc3F)nc12)N1CC[C@H](O)C1 [Larotrectinib] (top concentration 1000 nM)	-0.62	-0.62	4.18	-0.62	-0.62	0.98	1.48	-0.62	-0.62	-0.62	-0.62	-0.62	-0.62	-0.62	-0.62	-0.62	-0.62	-0.62	-0.62	-0.62
C[C@]1(O)C[C@@H](c2nc(-c3ccc4ccc(-c5ccccc5)nc4c3)c3c(N)nccn32)C1 [Linsitinib] (top concentration 10000 nM)	-2.28	3.92	2.22	-2.28	-3.18	-2.98	0.72	1.72	4.82	-2.58	1.62	-3.18	-2.88	-0.68	-3.18	-2.78	-3.18	-0.38	-3.18	0.22
O=C(O)CC[C@H]1CC[C@@](c2cc(F)ccc2F)(S(=O)(=O)c2ccc(Cl)cc2)CC1 [MK-0752] (top concentration 1000 nM)	1	0	0	0	0	0	0.3	4.6	0.4	0	0	0	0	0	0	0	0	0	0	0
CNC(=O)[C@@H](NC(=O)[C@H](CC(C)C)[C@H](O)C(=O)NO)C(C)(C)C [Marimastat] (top concentration 10000 nM)	-0.78	5.22	-1.08	0.22	1.22	-1.28	2.02	-1.28	0.12	0.62	3.72	-0.48	-0.68	-0.88	3.32	-0.18	1.02	7.22	-1.28	0.92
Clc1ccc(C(c2ccccc2Cl)C(Cl)Cl)cc1 (stereo not given) [Mitotane] (top concentration 10000 nM)	-0.08	-0.08	5.12	-0.08	-0.08	-0.08	-0.08	-0.08	-0.08	-0.08	-0.08	-0.08	0.12	-0.08	0.02	0.92	-0.08	4.32	-0.08	0.12
CCS(=O)(=O)Nc1ccc(Oc2ccc(F)cc2F)c(-c2cn(C)c(=O)c3[nH]ccc23)c1 [Mivebresib] (top concentration 10000 nM)	1.3	6.1	1.9	10.9	9.9	17.4	18.1	-13	1.5	-3.5	-5.7	1.5	8	1.6	14	-3.9	8.2	16.6	-12	12.5
CN1C(=O)N[C@H](Cc2c[nH]c3c(Cl)cccc23)C1=O [Necrostatin_2] (top concentration 10000 nM)	-0.08	-0.08	-0.08	-0.08	-0.08	-0.08	-0.08	-0.08	-0.08	-0.08	-0.08	-0.08	-0.08	-0.08	-0.08	-0.08	-0.08	-0.08	-0.08	-0.08
O=c1ncn2nc(Sc3ccc(F)cc3F)ccc2c1-c1c(Cl)cccc1Cl [Neflamapimod] (top concentration 10000 nM)	0.5	5	0.8	0	1	3.1	6.7	4.7	0.5	0	0	0	0.5	1.3	0.1	0.3	1	4	1.4	0
CC(O)c1cc(C(=O)N[C@@H](C)Cn2ccc(-c3ccc(C#N)c(Cl)c3)n2)n[nH]1 (stereo not given in full) [ODM-201] (top concentration 2500 nM)	1.62	0.52	0.12	-0.28	0.22	-0.18	1.12	-0.08	2.12	-0.18	-0.28	1.52	0.52	-0.28	2.32	1.52	-0.28	0.02	2.32	-0.28
C=CC(=O)Nc1cccc(Oc2nc(Nc3ccc(N4CCN(C)CC4)cc3)nc3ccsc23)c1 [Olmutinib] (top concentration 1000 nM)	-0.02	-0.02	-0.02	-0.02	-0.02	1.68	1.58	-0.02	-0.02	-0.02	-0.02	-0.02	-0.02	-0.02	0.28	-0.02	-0.02	-0.02	-0.02	-0.02
C=CC(=O)Nc1cc(Nc2nccc(-c3cn(C)c4ccccc34)n2)c(OC)cc1N(C)CCN(C)C [Osimertinib] (top concentration 2500 nM)	0.08	-0.72	-0.92	2.18	-3.02	3.88	-1.02	-3.82	-0.82	-3.12	2.98	-0.52	-2.12	1.68	-1.92	-0.32	-3.02	-0.82	-5.22	-1.12
